According to patent publication US10746738B2, “Claudin-1 peptide reagents and methods” (THE REGENTS OF THE UNIVERSITY OF MICHIGAN, priority 2015, dated 2020):
One block for each substance: values may come before it. Ends that are not written are not given here. Cy5.5 = near infrared dye label

What was measured:
[1] = system: T84 monolayers; assay: Transepithelial electrical resistance (TEER) and tight junction immunofluorescence; format: cell-based, human
Description: T84 human colon carcinoma cells were grown in a 1:1 mixture of DMEM and Ham's F-12 culture medium supplemented with 5% FBS. To establish polarized monolayer, the cells were plated on transwell permeable polyester supports (1.12 cm^2, pore size 3 μm, Costar) until they reached confluence after ˜3-4 days, as determined by an increase in TEER.43 The cells were continually grown on transwell supports until the TEER reached ˜2000 Ω-cm^2. […] TEER was then measured at 6, 12 and 24 hours. The cells were fixed with 4% PFA for 12 min. After brief washing, 1% SDS in PBS was used to permeabilize the cells. These procedures were followed by 3% goat serum in PBS blocking for 30 min. Mouse anti-zonula occludens-1 (anti-ZO-1) (1:250, Life Technologies) and rabbit anti-claudin-1 (1:200, Life Technologies) antibodies were diluted in block buffer and incubated in humidity box overnight at 4° C. and fluorescent secondary antibodies were diluted to 1:1000 and incubated for 1 hour at RT. All images were obtained using Nikon A1 confocal microscope (MIL, University of Michigan).
We evaluated the effect of peptide binding on tight junction function using a polarized monolayer of T84 cells plated on transwell supports.

[2] = system: colonic dysplasia; assay: In vivo fluorescence endoscopy of colon in CPC;Apc mouse; details: for fluorescence signal from dysplasia on endoscopy: CPC;Apc mouse colon
From the text: A genetically engineered mouse model (Cpc;Apc) that spontaneously forms adenomatous polyps in the colon was used for this study and handled according to Institutional Guidelines. The colons of anesthetized mice were first cleaned with water before imaging with a small animal endoscope (Karl Storz Veterinary Endoscope) using the white light channel to locate polyps by identifying anatomic landmarks and the distance of the endoscope tip from the anus. […] Fluorescent and reflectance images were then collected with the same endoscope set to the appropriate channels. Once in vivo imaging was complete, four of the mice used in the study were euthanized and colons harvested. Polyps and flat lesions detected during fluorescence imaging were located, removed, and processed for histology (H&E).
These mice are genetically-engineered to spontaneously develop colonic dysplasia, and the colonic lesions that develop are molecularly and histologically similar to that seen in human disease, making these mice a good model for monitoring cancer development. Because the extra-cellular domain of claudin-1 is completely homologous between human and mouse, peptides developed for human targets can be directly used in mouse imaging experiments. […] CPC;Apc mice were imaged at ˜3 months of age when they first begin to develop dysplasia. […] After imaging is completed, mice were euthanized, and the colons were resected. Based on the location of dysplastic lesions determined using fluorescence images collected with endoscopy, a pathologist measured the depth of dysplasia on histology, as shown by the dashed arrow in FIG. 7E. […] Images are obtained from mice over at least three sessions separated by 1 week to monitor for cancer progression.

[3] = system: human colonic adenocarcinoma cells (SW620, SW480, HT29, HCT116); assay: Cell binding assay on adenocarcinoma cell panel and co-localization with anti-claudin-1 antibody; format: cell-based
Description: SW620, SW480, and HT29 cells were plated at 0.5×10^6 cells/mL on coverslips on 12-well plates. The following day, the cells were treated with either 10 μM either RTS*-Cy5.5 or SPT*-Cy5.5 for 1 h at 4° C., fixed with 4% PFA for 10 minutes at RT, then counterstained with DAPI with Prolong Gold. Fluorescent images were collected and analyzed as detailed above. Statistical analysis was performed using a one-way ANOVA analysis on GraphPad Prism.
The cells were incubated with the peptide (10 μM) at 4° C. for 1 hour, washed 3× with PBS, fixed with 4% PFA, and mounted with ProLong Gold containing DAPI (Invitrogen). The mean (±std) fluorescence intensities were quantified using custom Matlab software (FIG. 5F). Levels of claudin-1 expression from cytosol (C) and membrane (M) of cells are shown on western blot (FIG. 5G). The cells were then incubated with 1:50 dilution of primary anti-claudin-1 rabbit mAb (4267, Invitrogen) for 1 hour at 4° C., and washed 3× with PBS at RT. The cells were further incubated with 1:500 dilution of […] labeled with Alexa Fluor 488 (Invitrogen) for 1 hour at RT. Co-localization of peptide (red) and antibody (green) binding to SW620 cells can be appreciated on the overlay fluorescence image (FIG. 5H). A Pearson's correlation of ρ=0.56 was calculated using custom Matlab software.

[4] = system: SW620 cells; assay: Confocal signal and photostability of Cy5- versus FITC-labeled peptide on cells; format: cell-based, human; details: for mean (±std) fluorescence intensity: 10 μM, 4° C., 1 hour, n=6 cells
Description: We incubated pep*-Cy5 (RTS*-Cy5) and pep*-FITC ([…]) (10 μM) (FIG. 4A) with human colon adenocarcinoma (SW620) cells that over-express Claudin-1 at 4° C. for 1 hour. A supercontinuum “white light” laser provided continuous excitation at 1.5 mW for both λex=647 and 488 nm. Confocal images (Leica TCS SP5 Microsystems) were collected using Cy5 and FITC filters every 2 min. At time 0 min, peptide (RTS*-Cy5) binding to the cell surface (arrow) is shown, scale bar 10 μm (FIG. 4B). The mean (±std) fluorescence intensities for the Cy5 and FITC-labeled peptides, measured from n=6 cells, were 58.4±3.7 and 3.1±0.6 A.U. respectively, resulting in ˜20-fold increase in signal using the NIR fluorophore. We also found a 8.5% reduction in fluorescence intensity for pep*-Cy5 in comparison to 32% for pep*-FITC at 12 min, resulting ˜4-fold improvement in photostability (FIG. 4C).

[5] = system: human colonic tissues; assay: Ex vivo staining of human colonic tissue sections
Description: Human colon tissue was obtained through consenting patents at the University of Michigan Hospital. Tissue was frozen in OCT and sectioned 10 μm thick using a Cryostat. The sections were thawed before staining with 10 μM RTS*-Cy5 for 15 minutes at RT. Tissues were then washed with PBS, fixed with 4% PFA for 10 min at RT, and counterstained with DAPI with Prolong Gold. Fluorescence was imaged and quantified as outlined above.
Specimens of normal colonic mucosa, adenoma, and adenocarcinoma from the right side (proximal) of the colon were obtained from routine surveillance colonoscopy and surgically removed by endoscopic mucosal resection. The tissues were frozen in OCT (Sakura Finetek), cut in 10 μm sections, and incubated with pep*-Cy5 (5 μM) in 1×PBS for 15 minutes at RT. The sections were washed 3× with PBS. Confocal fluorescence images were collected from these sections with DAPI, FITC and Cy5 filter sets (Leica TCS SP5 Microsystems).
The mean fluorescence intensities (±SEM) from binding of pep*-Cy5 were measured for normal colonic mucosa (n=4, 7±2 AU), adenoma (n=6, 26±4 AU) and adenocarcinoma (n=5, 31±4 AU), P<0.001, unpaired t-test (FIG. 6, scale bar 500 μm). […] We found pep*-Cy5 and anti-claudin-1 mAb to stain colonic adenomas and adenocarcinomas in 11/12 (92%) and 10/10 (100%) sections, respectively.

[6] = biological target: T1, claudin-1 (CLDN1) (Homo sapiens, UniProt O95832); assay: siRNA knockdown of CLDN1 expression, peptide and antibody binding to SW620 cells; format: cell-based
T1 construct: endogenous in cells; host or cells: SW620 human colorectal adenocarcinoma cells
T1 sequence (O95832 1-211): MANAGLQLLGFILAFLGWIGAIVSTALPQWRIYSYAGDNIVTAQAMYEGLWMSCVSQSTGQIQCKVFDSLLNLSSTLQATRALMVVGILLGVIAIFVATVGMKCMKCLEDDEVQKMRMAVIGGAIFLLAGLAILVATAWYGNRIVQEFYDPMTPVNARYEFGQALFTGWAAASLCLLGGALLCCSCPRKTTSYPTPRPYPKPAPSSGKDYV
Description: CLDN1 expression was knocked down using Dharmacon On-Target Plus SMARTpool Human CLDN1 siRNA (Thermo Scientific) according to the manufacturer's protocol. SW620 cells were plated overnight on coverslips in a 12-well plate at 0.2×10^6 cells/mL. The following day, cells were transfected with 3 μL DharmaFECT1 and either 25 nM CLDN1 or control siRNA. After 72 h, transfected cells were analyzed for CLDN1 expression through immunocytochemistry, a peptide binding study, or a Western blot of the cell lysate. For the immunocytochemistry experiment, cells were fixed with ice-cold methanol for 20 minutes at −20° C., blocked for 1 h at RT with PBS+2% BSA, stained with anti-human CLDN1 antibody at 5 μg/mL for 1 h at RT, then with goat anti-Rabbit AF488 (1:500) for 1 h at RT before being mounted on slides with DAPI with Prolong Gold. siRNA-transfected cells were also stained with 5 μM RTS-Cy5.5 or SPT-Cy5.5 for 30 minutes at 4° C., fixed with 4% PFA for 10 minutes at RT, then mounted on slides. Simultaneously, transfected cells were lysed with RIPA buffer containing Roche Mini-Complete EDTA-free Protease Inhibitor for 10 minutes on ice, collected and spun at 20,000×g for 10 minutes at 4° C. Supernatant was saved, total protein concentration quantified via a BCA assay, and 10 ug protein of each sample run on a Novex 4-20% 1.5 mm protein gel before transferring to a PVDF membrane. The membrane was blocked with PBST+5% non-fat milk for 1 h at 4° C., stained with either rabbit anti-CLDN1 Ab or mouse anti-tubulin Ab at 4° C. overnight, then with anti-rabbit HRP (1:500, for CLDN1) or anti-mouse HRP (1:500, for tubulin) for 1 h at RT before developing.
The specificity of peptide binding was validated on siRNA knockdown. […] These cells were transfected with siRNA to knockdown cell surface expression of claudin-1. […] The fluorescence intensities (mean±std) are shown (FIG. 2H). […] Given the experimental design and mean-squared-errors shown in FIG. 2H, with triplicate slides we have 98% power to obtain P<0.01 for interactions that show a 3-fold difference of differences.

[7] = at 12 min of continuous excitation

Substance: SPTPSSR [SPT*]
trans-epithelial electrical resistance (TEER) ([1]; 5 μM peptide, up to 24 hours): high
effect on tight junction function and ZO-1 distribution ([1]; 24 hours after peptide incubation): neither peptide alters tight junction function or ZO-1 distribution
fluorescence signal from dysplasia on endoscopy [2]: minimal signal
T/B ratio (mean±SD) ([2]; n=10 dysplasias, topical 100 μM, 5 minutes): 1.19±0.23

Substance: pep*-Cy5: RTSPSSR labeled at the C-terminus with Cy5 via a GGGSK linker
binding to cell surface ([3]; 10 μM, 4° C., 1 hour, control tested on SW620 cells): specific binding
Pearson's correlation ρ, co-localization with anti-claudin-1 antibody ([3]; SW620 cells): 0.56
mean (±std) fluorescence intensity [4]: 58.4±3.7 A.U.
increase in signal using Cy5 label versus FITC ([4]; SW620 cells): ~20 fold
improvement in photostability compared to FITC-labeled peptide [4, 7]: ~4 fold
reduction in fluorescence intensity [4, 7]: 8.5%
mean fluorescence intensity (±SEM) ([5]; adenocarcinoma, n=5): 31±4 AU
sections stained ([5]; adenocarcinomas, 10/10 sections): 100%
mean fluorescence intensity (±SEM) ([5]; adenoma, n=6): 26±4 AU
sections stained ([5]; colonic adenomas, 11/12 sections): 92%
mean fluorescence intensity (±SEM) ([5]; normal colonic mucosa, n=4): 7±2 AU

signal for siCL versus siCLDN1 cells ([6]; SW620 cells, control siRNA versus CLDN1 siRNA, 3 replicate slides): 0.80 fold-change
binding to the surface of SW620 cells ([6]; confocal microscopy): minimal binding
Substance: SPT*-Cy5.5: control scrambled sequence SPTPSSR labeled with Cy5.5 via the GGGSK linker (SPTPSSRGGGSK-{Cy5.5}) [reference compound]
fluorescence signal from dysplasia on endoscopy [2]: minimal signal

Substance: pep*-FITC: RTSPSSR labeled at the C-terminus with FITC via a GGGSK linker
mean (±std) fluorescence intensity [4]: 3.1±0.6 A.U.
reduction in fluorescence intensity [4, 7]: 32%
